Results from patent US20110052532A1, “Pharmaceutical composition comprising a cytokine” (priority 2007, published 2011).

B1: IFN-α: type I interferon cytokine; commercial IFN-α is IFN-α1 (protein, UniProt P01562 24-189, looked up)
Interferon alpha-1/13: CDLPETHSLDNRRTLMLLAQMSRISPSSCLMDRHDFGFPQEEFDGNQFQKAPAISVLHELIQQIFNLFTTKDSSAAWDEDLLDKFCTELYQQLNDLEACVMQEERVGETPLMNADSILAVKKYFRRITLYLTEKKYSPCAWEVVRAEIMRSLSLSTNLQERLRRKE

How the values were obtained:
[1] = system: Madin-Darby bovine kidney cells; assay: BVDV assay, combined cytotoxicity (MTS staining); format: cell-based; details: in combination with IFN-α; MDBK cells
Experimental: (§1) The substances were solubilized in DMSO. Pegylated interferon-alpha (IFN) was supplied by Southern Research Institute and dissolved in sterile dH2O.
(§2) Drug-drug interactions were assayed by testing both the antiviral and cytotoxic activities of a wide range of concentrations of combinations of the compounds and IFN. The bovine viral diarrhea virus (BVDV) NADL strain antiviral evaluation assay and drug-drug combination analysis was performed as described in Antimicro. Agents Chemother. 2003; 47: 2293-8. BVDV is frequently employed as a hepatitis C virus surrogate model in the study of antiviral agents (Antiviral Res. 2003; 60:1-15). Madin-Darby bovine kidney cells were trypsinized, pelleted, counted and resuspended at 1×10^4/well in tissue culture medium in 96-well flat bottom, tissue culture plates in volume of 100 μl per well. […] Five concentrations of substance were evaluated in combination with nine different concentrations IFN; antiviral efficacy and cellular toxicity were monitored by MTS staining at the experimental endpoint.
(§3) At assay termination, the assay plates were stained with the soluble tetrazolium-based dye MTS (CellTiter Reagent Promega) to determine cell viability and quantify compound toxicity. […]
(§4) Theoretical additive values are calculated from the dose response curves for each substance used individually. […]

[2] = system: bovine viral diarrhea virus (BVDV) NADL strain; assay: BVDV antiviral drug-drug combination assay (MTS, MacSynergy II); format: cell-based; details: in combination with IFN-α; MDBK cells with BVDV virus
Experimental: as §1, §2, §3, §4

HCV = details: cited from earlier work

Row | Molecule | combined cytotoxic activity (drug-drug interaction) [1] | combined antiviral activity (drug-drug interaction) [2] | sustained antiviral response, share of patients (HCV; IFN-α therapy in chronic HCV infected patients) | sustained response (HCV; combination therapy with ribavirin)
1 | O=C(c1ccccc1)c1ccc2nc(NC(=O)c3csc(C4CCN(c5ncnc6ccsc56)CC4)n3)[nH]c2c1 [Compound 273, 2-(1-Thieno[3,2-d]pyrimidin-4-yl-piperidin-4-yl)-thiazole-4-carboxylic acid (5-benzoyl-1H-benzoimidazol-2-yl)-amide] | highly antagonistic behaviour | highly synergistic behaviour | – | –
2 | B1 | – | – | 15-20% | 38-43%
